In paper PMC10408569, “Recruitment of hexahydroquinoline as anticancer scaffold targeting inhibition of wild and mutants EGFR (EGFR^WT, EGFR^T790M, and EGFR^L858R)” (Journal of Enzyme Inhibition and Medicinal Chemistry, 2023):

Key:
MDA-MB-435 = test: NCI-60 anticancer screening (SRB); format: cell-based; conditions: Homo sapiens
HL-60(TB) = test: NCI-60 anticancer screening (SRB); format: cell-based; conditions: Homo sapiens
KM 12 = test: NCI-60 anticancer screening (SRB); format: cell-based; conditions: Homo sapiens, KM12
T-47D = test: NCI-60 anticancer screening (SRB); format: cell-based; conditions: Homo sapiens, T47D
EKVX = test: NCI-60 anticancer screening (SRB); format: cell-based; conditions: Homo sapiens
TK-10 = test: NCI-60 anticancer screening (SRB); format: cell-based; conditions: Homo sapiens
SN 12C = test: NCI-60 anticancer screening (SRB); format: cell-based; conditions: Homo sapiens, SN12C
A549/ATCC = test: NCI-60 anticancer screening (SRB); format: cell-based; conditions: Homo sapiens
MDA-MB-231 = test: NCI-60 anticancer screening (SRB); format: cell-based; conditions: Homo sapiens
SK-MEL-28 = test: NCI-60 anticancer screening (SRB); format: cell-based; conditions: Homo sapiens
SF-268 = test: NCI-60 anticancer screening (SRB); format: cell-based; conditions: Homo sapiens
HT29 = test: NCI-60 anticancer screening (SRB); format: cell-based; conditions: Homo sapiens, HT-29
SK-MEL-5 = test: NCI-60 anticancer screening (SRB); format: cell-based; conditions: Homo sapiens
SNB-75 = test: NCI-60 anticancer screening (SRB); format: cell-based; conditions: Homo sapiens
786-0 = test: NCI-60 anticancer screening (SRB); format: cell-based; conditions: Homo sapiens
NCI-H460 = test: NCI-60 anticancer screening (SRB); format: cell-based; conditions: Homo sapiens
UACC-62 = test: NCI-60 anticancer screening (SRB); format: cell-based; conditions: Homo sapiens
SNB-19 = test: NCI-60 anticancer screening (SRB); format: cell-based; conditions: Homo sapiens
HOP-62 = test: NCI-60 anticancer screening (SRB); format: cell-based; conditions: Homo sapiens
CAKI-1 = test: NCI-60 anticancer screening (SRB); format: cell-based; conditions: Homo sapiens
HCC-2998 = test: NCI-60 anticancer screening (SRB); format: cell-based; conditions: Homo sapiens
NCI 60 cancer cell lines = test: NCI-60 anticancer screening (SRB), whole panel; format: cell-based, human
HCT-15 = test: NCI-60 anticancer screening (SRB); format: cell-based; conditions: Homo sapiens
RPMI-8226 = test: NCI-60 anticancer screening (SRB); format: cell-based; conditions: Homo sapiens
DU-145 = test: NCI-60 anticancer screening (SRB); format: cell-based; conditions: Homo sapiens
RXF 393 = test: NCI-60 anticancer screening (SRB); format: cell-based; conditions: Homo sapiens
NCI-H322M = test: NCI-60 anticancer screening (SRB); format: cell-based; conditions: Homo sapiens
M14 = test: NCI-60 anticancer screening (SRB); format: cell-based; conditions: Homo sapiens
SF-539 = test: NCI-60 anticancer screening (SRB); format: cell-based; conditions: Homo sapiens
NCI-H522 = test: NCI-60 anticancer screening (SRB); format: cell-based; conditions: Homo sapiens
SF-295 = test: NCI-60 anticancer screening (SRB); format: cell-based; conditions: Homo sapiens
NCI/ADR-RES = test: NCI-60 anticancer screening (SRB); format: cell-based; conditions: Homo sapiens, ovarian cancer, one dose 10 μM, read-out: Growth Inhibition Percentage (GI %)
[1] = NSC lung cancer, one dose 10 μM, read-out: Growth Inhibition Percentage (GI %)

CCOC(=O)C1=C(N)N(c2ccccc2)C2=C(C(=O)CC(C)(C)C2)C1c1ccc(Cl)cc1Cl (racemic) [10c, (±)-Ethyl 2-amino-4–(2,4-dichlorophenyl)-7,7-dimethyl-5-oxo-1-phenyl-1,4,5,6,7,8-hexahydroquinoline-3-carboxylate]
inhibition at 10 µM (MDA-MB-435; MDA-MB-435, melanoma, one dose 10 μM, read-out: Growth Inhibition Percentage (GI %)): 71%
GI50 (MDA-MB-435; MDA-MB-435, five doses 0.01-100 µM, 48 h): 3.21 µM
GI50 (HL-60(TB); five doses 0.01-100 µM, 48 h): 5.95 µM
inhibition at 10 µM (HL-60(TB); leukemia, one dose 10 μM, read-out: Growth Inhibition Percentage (GI %)): 99%
inhibition at 10 µM (KM 12; KM 12, colon cancer, one dose 10 μM, read-out: Growth Inhibition Percentage (GI %)): 81%
GI50 (KM 12; KM-12, five doses 0.01-100 µM, 48 h): 2.36 µM
inhibition at 10 µM (T-47D; breast cancer, one dose 10 μM, read-out: Growth Inhibition Percentage (GI %)): 79%
GI50 (T-47D; five doses 0.01-100 µM, 48 h): 1.04 µM
inhibition at 10 µM (EKVX; [1]): 81%
GI50 (EKVX; five doses 0.01-100 µM, 48 h): 2.62 µM
inhibition at 10 µM (TK-10; TK-10, renal cancer, one dose 10 μM, read-out: Growth Inhibition Percentage (GI %)): 63%
GI50 (TK-10; TK-10, five doses 0.01-100 µM, 48 h): 5.63 µM
inhibition at 10 µM (SN 12C; SN 12C, renal cancer, one dose 10 μM, read-out: Growth Inhibition Percentage (GI %)): 79%
GI50 (SN 12C; SN 12 C, five doses 0.01-100 µM, 48 h): 3.08 µM
inhibition at 10 µM (A549/ATCC; A549/ATCC, NSC lung cancer, one dose 10 μM, read-out: Growth Inhibition Percentage (GI %)): 73%
GI50 (A549/ATCC; A549, five doses 0.01-100 µM, 48 h): 1.88 µM
inhibition at 10 µM (MDA-MB-231; MDA-MB-231, breast cancer, one dose 10 μM, read-out: Growth Inhibition Percentage (GI %)): 75%
GI50 (MDA-MB-231; MDA-MB-231, five doses 0.01-100 µM, 48 h): 3.34 µM
inhibition at 10 µM (SK-MEL-28; SK-MEL-28, melanoma, one dose 10 μM, read-out: Growth Inhibition Percentage (GI %)): 49%
GI50 (SK-MEL-28; SK-MEL-28, five doses 0.01-100 µM, 48 h): 6.67 µM
inhibition at 10 µM (SF-268; SF-268, CNS cancer, one dose 10 μM, read-out: Growth Inhibition Percentage (GI %)): 48%
GI50 (SF-268; SF-268, five doses 0.01-100 µM, 48 h): 5.32 µM
inhibition at 10 µM (HT29; HT29, colon cancer, one dose 10 μM, read-out: Growth Inhibition Percentage (GI %)): 65%
GI50 (HT29; five doses 0.01-100 µM, 48 h): 1.98 µM
inhibition at 10 µM (SK-MEL-5; SK-MEL-5, melanoma, one dose 10 μM, read-out: Growth Inhibition Percentage (GI %)): 102%
GI50 (SK-MEL-5; SK-MEL-5, five doses 0.01-100 µM, 48 h): 1.24 µM
inhibition at 10 µM (SNB-75; SNB-75, CNS cancer, one dose 10 μM, read-out: Growth Inhibition Percentage (GI %)): 59%
GI50 (SNB-75; SNB-75, five doses 0.01-100 µM, 48 h): 5.33 µM
inhibition at 10 µM (786-0; 786-0, renal cancer, one dose 10 μM, read-out: Growth Inhibition Percentage (GI %)): 66%
GI50 (786-0; 786-0, five doses 0.01-100 µM, 48 h): 4.24 µM
inhibition at 10 µM (NCI-H460; NCI-H460, NSC lung cancer, one dose 10 μM, read-out: Growth Inhibition Percentage (GI %)): 82%
GI50 (NCI-H460; NCI-H460, five doses 0.01-100 µM, 48 h): 1.39 µM
inhibition at 10 µM (UACC-62; UACC-62, melanoma, one dose 10 μM, read-out: Growth Inhibition Percentage (GI %)): 73%
GI50 (UACC-62; UACC-62, five doses 0.01-100 µM, 48 h): 1.26 µM
inhibition at 10 µM (SNB-19; SNB-19, CNS cancer, one dose 10 μM, read-out: Growth Inhibition Percentage (GI %)): 72%
GI50 (SNB-19; SNB-19, five doses 0.01-100 µM, 48 h): 2.92 µM
inhibition at 10 µM (HOP-62; HOP-62, NSC lung cancer, one dose 10 μM, read-out: Growth Inhibition Percentage (GI %)): 49%
GI50 (HOP-62; HOP-62, five doses 0.01-100 µM, 48 h): 4.88 µM
inhibition at 10 µM (CAKI-1; CAKI-1, renal cancer, one dose 10 μM, read-out: Growth Inhibition Percentage (GI %)): 77%
GI50 (CAKI-1; CAKI-1, five doses 0.01-100 µM, 48 h): 6.82 µM
inhibition at 10 µM (HCC-2998; HCC-2998, colon cancer, one dose 10 μM, read-out: Growth Inhibition Percentage (GI %)): 62%
GI50 (HCC-2998; HCC-2998, five doses 0.01-100 µM, 48 h): 2.77 µM
LC50 (50% lethal concentration) (NCI 60 cancer cell lines; Homo sapiens, 60 cell, five doses, read-out: LC50 values towards 60 cell lines): > 100 µM
GI50 (NCI 60 cancer cell lines; Homo sapiens, five doses 0.01-100 µM, 48 h, read-out: GI50 range against nearly all the tested cell lines): 1.04 to 9.56 µM
GI % mean (NCI 60 cancer cell lines; mean across the NCI-60 panel, one dose 10 μM): 74%
inhibition at 10 µM (HCT-15; HCT-15, colon cancer, one dose 10 μM, read-out: Growth Inhibition Percentage (GI %)): 86%
GI50 (HCT-15; HCT-15, five doses 0.01-100 µM, 48 h): 1.52 µM
inhibition at 10 µM (RPMI-8226; RPMI-8226, leukemia, one dose 10 μM, read-out: Growth Inhibition Percentage (GI %)): 92%
GI50 (RPMI-8226; RPMI-8226, five doses 0.01-100 µM, 48 h): 7.07 µM
inhibition at 10 µM (DU-145; DU-145, prostate cancer, one dose 10 μM, read-out: Growth Inhibition Percentage (GI %)): 54%
GI50 (DU-145; DU-145, five doses 0.01-100 µM, 48 h): 6.71 µM
inhibition at 10 µM (RXF 393; RXF 393, renal cancer, one dose 10 μM, read-out: Growth Inhibition Percentage (GI %)): 79%
GI50 (RXF 393; RXF 393, five doses 0.01-100 µM, 48 h): 1.38 µM
GI50 (NCI-H322M; NCI-H322-M, five doses 0.01-100 µM, 48 h): 7.71 µM
inhibition at 10 µM (NCI-H322M; [1]): 43%
inhibition at 10 µM (M14; M14, melanoma, one dose 10 μM, read-out: Growth Inhibition Percentage (GI %)): 59%
GI50 (M14; M14, five doses 0.01-100 µM, 48 h): 3.48 µM
inhibition at 10 µM (SF-539; SF-539, CNS cancer, one dose 10 μM, read-out: Growth Inhibition Percentage (GI %)): 67%
GI50 (SF-539; SF-539, five doses 0.01-100 µM, 48 h): 3.78 µM
inhibition at 10 µM (NCI-H522; NCI-H522, NSC lung cancer, one dose 10 μM, read-out: Growth Inhibition Percentage (GI %)): 65%
GI50 (NCI-H522; NCI-H522, five doses 0.01-100 µM, 48 h): 2.22 µM
inhibition at 10 µM (SF-295; SF-295, CNS cancer, one dose 10 μM, read-out: Growth Inhibition Percentage (GI %)): 76%
GI50 (SF-295; SF-295, five doses 0.01-100 µM, 48 h): 2.03 µM
inhibition at 10 µM (NCI/ADR-RES): 76%
